What was measured:
Details in all cases: 72 h
[1] = system: Caco-2; experiment: relative viability EC50 (midpoint between 100% and the lowest measured viability); higher = less toxic
[2] = system: Vero E6; experiment: as above
[3] = system: U2OS; experiment: as above
[4] = system: HepG2; experiment: as above
[5] = system: Calu-3; experiment: as above
[6] = system: Caco-2; experiment: drug sensitivity score (DSS) for viability; higher = more toxic; extreme values may be limits of the assay
[7] = system: Vero E6; experiment: as above
[8] = system: U2OS; experiment: as above
[9] = system: HepG2; experiment: as above
[10] = system: Calu-3; experiment: as above
[11] = system: Caco-2; experiment: cell viability relative to DMSO; higher = less toxic
[12] = system: Vero E6; experiment: as above
[13] = system: U2OS; experiment: as above
[14] = system: HepG2; experiment: as above
[15] = system: Calu-3; experiment: as above

Compound | relative viability EC50 [1] [µM] | relative viability EC50 [2] [µM] | relative viability EC50 [3] [µM] | relative viability EC50 [4] [µM] | relative viability EC50 [5] [µM] | drug sensitivity score [6] | drug sensitivity score [7] | drug sensitivity score [8] | drug sensitivity score [9] | drug sensitivity score [10] | cell viability ([11]; 1 nM) [%] | cell viability ([11]; 10 nM) [%] | cell viability ([11]; 100 nM) [%] | cell viability ([11]; 1000 nM) [%] | cell viability ([11]; 10000 nM) [%] | cell viability ([12]; 1 nM) [%] | cell viability ([12]; 10 nM) [%] | cell viability ([12]; 100 nM) [%] | cell viability ([12]; 1000 nM) [%] | cell viability ([12]; 10000 nM) [%] | cell viability ([13]; 1 nM) [%] | cell viability ([13]; 10 nM) [%] | cell viability ([13]; 100 nM) [%] | cell viability ([13]; 1000 nM) [%] | cell viability ([13]; 10000 nM) [%] | cell viability ([14]; 1 nM) [%] | cell viability ([14]; 10 nM) [%] | cell viability ([14]; 100 nM) [%] | cell viability ([14]; 1000 nM) [%] | cell viability ([14]; 10000 nM) [%] | cell viability ([15]; 1 nM) [%] | cell viability ([15]; 10 nM) [%] | cell viability ([15]; 100 nM) [%] | cell viability ([15]; 1000 nM) [%] | cell viability ([15]; 10000 nM) [%]
CCCCCC(C)N (stereo not given) [tuaminoheptane] | > 10 | > 10 | > 10 | > 10 | > 10 | 0 | 0 | 0 | 4.1 | 0 | 90.7 | 89.6 | 95.9 | 96.8 | 87.6 | 96.4 | 103 | 97.9 | 95 | 94.4 | 100 | 101 | 97.5 | 99.9 | 96.4 | 103 | 94.9 | 83 | 88.8 | 90.8 | 90.3 | 98.6 | 109 | 107 | 104
COc1ccccc1N1CCN(CCCNc2cc(=O)n(C)c(=O)n2C)CC1 [urapidil] | > 10 | > 10 | > 10 | > 10 | > 10 | 0 | 0 | 0 | 0 | 0 | 92.1 | 96.4 | 97.9 | 101 | 104 | 100 | 100 | 98.8 | 98.6 | 102 | 91.1 | 97.5 | 95.2 | 101 | 103 | 105 | 90.1 | 107 | 95.8 | 95 | 96.7 | 98.5 | 96.4 | 102 | 107
NC(N)=O [urea] | > 10 | > 10 | > 10 | > 10 | > 10 | 0 | 0 | 0 | 0 | 0 | 96.4 | 93.4 | 102 | 94.5 | 108 | 97.8 | 100 | 104 | 92.3 | 103 | 95.8 | 97.9 | 98.6 | 101 | 97.2 | 82.1 | 86.1 | 90.2 | 86.5 | 94.2 | 100 | 92.1 | 93.8 | 114 | 89.3
Cc1onc(-c2ccccc2)c1-c1ccc(S(N)(=O)=O)cc1 [valdecoxib] | > 10 | > 10 | > 10 | > 10 | > 10 | 0 | 0 | 0 | 0 | 0 | 103 | 97.5 | 98 | 93.4 | 93.6 | 102 | 99.1 | 106 | 93.8 | 99.5 | 96.5 | 94.9 | 97.8 | 99.5 | 98.5 | 89.6 | 95.3 | 97.5 | 96 | 96.1 | 95.6 | 104 | 105 | 96.9 | 106
CC(C)(C)c1ccc(S(=O)(=O)Nc2ccc(Cl)cc2C(=O)c2cc[n+]([O-])cc2)cc1 [vercirnon] | > 10 | > 10 | > 10 | > 10 | > 10 | 0 | 0 | 0 | 0 | 0 | 89.6 | 97.4 | 87.4 | 110 | 100 | 98.2 | 97.4 | 94.7 | 95.6 | 106 | 97.7 | 97.5 | 97.1 | 104 | 104 | 93.4 | 93.7 | 104 | 106 | 89.4 | 95.4 | 99.9 | 99.7 | 93 | 96.3
CC[C@]1(O)C[C@@H]2CN(CCc3c([nH]c4ccccc34)[C@@](C(=O)OC)(c3cc4c(cc3OC)N(C)[C@H]3[C@@](O)(C(N)=O)[C@H](O)[C@]5(CC)C=CCN6CC[C@]43[C@@H]65)C2)C1 [vindesine] | 0.0121 | 0.219 | 0.018 | 0.0085 | 0.0122 | 20.6 | 14.3 | 25.7 | 23.5 | 17.8 | 93.8 | 72.7 | 48.5 | 41.2 | 40.3 | 96.4 | 95.3 | 83.3 | 33.6 | 27.3 | 98.7 | 73.5 | 31.6 | 26.4 | 22.3 | 92.9 | 64.8 | 43.2 | 35.8 | 37.2 | 93.8 | 70.6 | 61.4 | 47 | 45.9
Cn1nc(-c2ccc(C(F)(F)F)cc2)nc2c(=O)n(C)c(=O)nc1-2 [walrycin-B] | 1.15 | 3.26 | 3.02 | 0.88 | 2.87 | 10.2 | 3.5 | 5.7 | 11.6 | 3 | 96.6 | 99.2 | 99.3 | 61.8 | 7.5 | 102 | 100 | 102 | 101 | 34.4 | 105 | 107 | 100 | 98 | 1.8 | 108 | 101 | 84.7 | 51.3 | 1.6 | 109 | 108 | 108 | 98 | 48.5

— the supplement of paper PMC13380429
